These results are taken from patent publication US9187430B2, “Poly (ADP-ribose) polymerase inhibitor” (CHENGDU DI'AO PHARMACEUTICAL GROUP CO., LTD., priority 2011, dated 2015).

≈ marks a conversion by molar mass, not a printed value.

Series [1] relates to triple-negative phenotypic breast cancer cell line MDA-MB-436. The experiment in a line: Cell proliferation inhibition assay (SRB method). Format: cell-based. Conditions: Homo sapiens, 144 h; BRCA-deficient MDA-MB-436, six days, compound alone. From the text:
Cell Proliferation Inhibition Assay
This assay was used to study the effect of PARP-1 inhibitor alone for tumor suppression. Breast cancer susceptibility genes BRCA1 and BRCA2 play an important role in homologous recombination DNA repair. BRCA-deficient cells represent homologous recombination repair defect, if PARP-mediated DNA repair is inhibited at the same time, DNA damage in cells may be increased, resulting in chromatin abnormality or even cell death.
BRCA-deficient breast cancer cell line MDA-MB-436 was selected for the assay, PARP inhibitor was used alone to evaluate its damage effect on cells. The inhibition effect of the compound was expressed by IC50.
Breast cancer cell line MDA-MB-436 in good growth condition seeded in 96-well plates (5000 cells/well or 3000 cells/well, respectively), and cultured overnight in an incubator at 37° C., 5% CO2 with saturated humidity. On the next day, samples with a series of concentration gradients were added and cultured for another six days. SRB method was used to detect the samples' inhibition on cell growth and calculate their growth inhibition rate.

The nature of series [2]: Solubility test (thermodynamic solubility, HPLC external standard). Format: physicochemical. Particulars: aqueous buffer, thermodynamic from solid; pH=7.4 phosphate buffer, 25° C., shaken 24 hours; read-out: Water Solubility (PH = 7.4). Here is the method:
In this test, excess amount of test sample was added into pH=7.4 phosphate buffer. Ultrasonic was performed for 30 min until the drug no longer dissolved. The solution was continuously shaked for 24 hours at a constant temperature of 25° C. to achieve a thermodynamic equilibrium of compound, and then the solution was filtrated to get filtrate. Quantitative analysis of compound in filtrate using external standard method is performed according to “Appendix VD High Performance Liquid Chromatography, Part II of Pharmacopeia 2010,” and the sample thermodynamic solubility in pH=7.4 phosphate buffered solution was determined.
Agilent 1200 LC, Phenomen C18 column (4.6 mm*150 mm, […]), mobile phase: methanol:water (60:40), flow rate: 1 mL/min, column temperature: 25° C., wave length: 230 nm, injection volume: 10 μL
About 30 mg test compound was put in a 10 mL volumetric flask, about 8 mL pH=7.4 phosphate buffer was added and ultrasonic was performed for 30 min, and the solution was shaked for 24 hours in a shaker at a constant temperature of 25° C. The solution was settled for half an hour under 25° C., filtered with […] hydrophilic filter. The filtrate was used as test sample.
Standard compound AZD-2281 was put in a volumetric flask and dissolved in the mobile phase. The solutions were injected to measure the peak area. The retention time of AZD-2281 was about 8.5 min. The peak area was regressed against concentration to get a regression equation y=29.66x+302.82 (r=0.9997), and the linear range is 52.45˜83.92 µg/mL (see FIG. 1).
The test solution was injected for three times according to the above chromatographic conditions. The peak area was measured to calculate the corresponding concentration.
The procedures for testing the solubility of other compounds were similar with compound AZD-2281.

Series [3] deals with occlusion of the MCA in mice. Conditions: intracerebroventricular administration; cited from earlier work.
The subject of series [4] is rat model of focal cerebral ischemia. Conditions: i.p. 10 mg/kg two hours prior to and two hours after the initiation of ischemia; cited from earlier work.

In general, IC50 refers to the concentration at which inhibition is half-maximal. As usually defined, the solubility is the concentration that dissolves in the medium under given conditions. As for `O=C(c1cc(Cc2n[nH]c(=O)c3ccccc23)ccc1F)N1CCN(C(=O)C2CC2)CC1` [AZD-2281, reference compound], the IC50 in series [1] came out at 4.38 µM. The solubility at 24 h in series [2] was determined as 531 µg/mL (≈ 1220 µM). For the molecule `NC(=O)c1cccc(N)c1` [Compound 3-AB, 3-aminobenzamide], in series [3], the “decrease in infarct volume” value was 47%.

In the case of `C[C@@H](C(=O)N1CCN(C(=O)c2cc(Oc3n[nH]c(=O)c4ccccc34)ccc2F)CC1)c1ccccc1` [Compound 49, (R)-4-(4-fluoro-3-(4-(2-phenylpropionyl)piperazine-1-carbonyl)phenoxy)-2H-phthalazin-1-one], the IC50 in series [1] came out at 4.21 µM. `CC(C)(C)C(=O)N1CCN(C(=O)c2cc(Oc3n[nH]c(=O)c4ccccc34)ccc2F)CC1` [Compound 55, 4-(4-fluoro-3-(4-pivaloylpiperazine-1-carbonyl)phenoxy)-2H-phthalazin-1-one]: the solubility at 24 h in series [2] came out at 602 µg/mL (≈ 1330 µM). In the case of `CCC(CC)C(=O)N1CCN(C(=O)c2cc(Oc3n[nH]c(=O)c4ccccc34)ccc2F)CC1` [Compound 61, 4-(3-(4-(2-ethylbutyryl)piperazine-1-carbonyl)-4-fluorophenoxy)-2H-phthalazin-1-one], the 50% inhibitory concentration (IC50) in series [1] was determined as 1.98 µM. `CC(C)N1CCN(C(=O)c2cc(Oc3n[nH]c(=O)c4ccccc34)ccc2F)CC1` [Compound 79, 4-(4-fluoro-3-(4-isopropyl-1-carbonyl)phenoxy)-2H-phthalazin-1-one]: in series [2], the solubility at 24 h is 650 µg/mL (≈ 1580 µM). For the molecule `O=C(c1cc(Oc2n[nH]c(=O)c3ccccc23)ccc1F)N1CCN(C(=O)N2CCCCC2)CC1` [Compound 85, 4-(4-fluoro-3-(4-(piperidine-1-carbonyl)piperazine-1-carbonyl)phenoxy)-2H-phthalazin-1-one], the half-inhibitory concentration (IC50) in series [1] was 3.35 µM.

For the molecule `O=C(c1cc(Oc2n[nH]c(=O)c3ccccc23)ccc1F)N1CCN(C(=O)c2ccccc2[N+](=O)[O-])CC1` [Compound 88, 4-(4-fluoro-3-(4-(2-nitrobenzoyl)piperazine-1-carbonyl)phenoxy)-2H-phthalazin-1-one], the IC50 in series [1] was found to be 3.28 µM.

In the case of `O=C(c1cc(Oc2n[nH]c(=O)c3ccccc23)ccc1F)N1CCN(C(=O)C2CCCCC2)CC1` [Compound 99], the IC50 in series [1] came to 2.63 µM. For the molecule `CCC(=O)N1CCN(C(=O)c2cc(Oc3n[nH]c(=O)c4ccccc34)ccc2F)CC1` [Compound 100, 4-(4-fluoro-3-(4-propionylpiperazine-1-carbonyl)phenoxy)2H-phthalazin-1-one], in series [1], the IC50 came to 4.12 µM. In series [2], the solubility at 24 h was 660 µg/mL (≈ 1560 µM). With `O=C(c1cc(Oc2n[nH]c(=O)c3ccccc23)ccc1F)N1CCN(C(=O)C2CCC(F)(F)CC2)CC1` [Compound 107, 4-(3-(4-(4,4-difluorocyclohexanecarbonyl)piperazine-1-carbonyl)-4-fluorophenoxy)2H-phthalazin-1-one], the IC50 in series [1] was 3.17 µM. With `CN(C)C1(C(=O)N2CCN(C(=O)c3cc(Oc4n[nH]c(=O)c5ccccc45)ccc3F)CC2)CC1` [Compound 124, 4-(3-(4-(1-(dimethylamino)cyclopropanecarbonyl)piperazine-1-carbonyl)-4-fluorophenoxy)2H-phthalazin-1-one], the half-inhibitory concentration (IC50) in series [1] was found to be 3.7 µM. The solubility at 24 h in series [2] was 1440 µg/mL (≈ 3000 µM). In the case of `NC1(C(=O)N2CCN(C(=O)c3cc(Oc4n[nH]c(=O)c5ccccc45)ccc3F)CC2)CC1` [Compound 125, 4-(3-(4-(1-aminocyclopropanecarbonyl)piperazine-1-carbonyl)-4-fluorophenoxy)2H-phthalazin-1-one], the solubility at 24 h in series [2] came to 671 µg/mL (≈ 1490 µM).

Take `CNC1(C(=O)N2CCN(C(=O)c3cc(Oc4n[nH]c(=O)c5ccccc45)ccc3F)CC2)CCC1` [Compound 127, 4-(4-fluoro-3-(4-(1-(methylamino)cyclobutanecarbonyl)piperazine-1-carbonyl)phenoxy)2H-phthalazin-1-one]: the solubility at 24 h in series [2] was 630 µg/mL (≈ 1310 µM).

In the case of `C[C@]1(C(=O)N2CCN(C(=O)c3cc(Oc4n[nH]c(=O)c5ccccc45)ccc3F)CC2)CCCN1` [Compound 130, (R)-4-(4-fluoro-3-(4-(2-methylpyrrolidine-2-carbonyl)piperazine-1-carbonyl)phenoxy)-2H-phthalazin-1-one], the IC50 in series [1] was 3.85 µM. As for `O=C1NCCc2c(OCCCCN3CCCCC3)cccc21` [DPQ, 3,4-dihydro-5-[4-(1-piperidinyl)butoxy]-1(2H)-isoquinolinone], the “reduction in infarct volume” value in series [4] is 54%.
